Laboratory results taken from patent publication US20250296953A1, “3,4-THIAZOLO-STEROIDS AND METHODS OF MAKING AND USING THE SAME” (Arkansas State University - Jonesboro, priority 2018, published 2025).
Read-outs that look alike come from different tables or passages of the source.

Key:
[1] = tested on: 60 different human tumor cell lines; experiment: NCI Development Therapeutics Program 60 cell line screen, one dose; format: cell-based
[2] = tested on: NCI-H522 (NSCLC); experiment: NCI 60 one dose screen; format: cell-based, human; settings: Non-small Cell Lung Cancer
[3] = tested on: HCT-15 (Colon Cancer); experiment: NCI 60 one dose screen; format: cell-based, human
[4] = tested on: SF-295; experiment: NCI 60 one dose screen; format: cell-based, human; settings: one dose; CNS Cancer; SF-295
[5] = tested on: SF-539; experiment: NCI 60 one dose screen; format: cell-based, human; settings: one dose; CNS Cancer; SF-539
[6] = tested on: 60 different human tumor cell lines; experiment: cells
[7] = tested on: gliosarcoma (SF-539); experiment: NCI 60 five dose screen
[8] = tested on: RPMI-8226; experiment: NCI 60 five dose screen
[9] = tested on: SR; experiment: NCI 60 five dose screen

C[C@]12CCc3sc(Nc4cccc(O)c4)nc3C1=CC[C@@H]1[C@@H]2CC[C@]2(C)C(=O)CC[C@@H]12 [IIa.17, (1S,2R,13R,14S,18S)-7-(3-hydroxyanilino)-2,18-dimethyl-6-thia-8-azapentacyclo[11.7.0.02,10.05,9.014,18]icosa-5(9),7,10-trien-17-one]
Growth Percent ([1]; Breast Cancer, BT-549): 17.42% | Growth Percent ([1]; Breast Cancer, HS 578T): 7.41% | Growth Percent ([1]; Breast Cancer, MCF7): −25.89% | Growth Percent ([1]; Breast Cancer, MDA-MB-231/ATCC): 39.51% | Growth Percent ([1]; Breast Cancer, MDA-MB-468): 32.20% | Growth Percent ([1]; Breast Cancer, T-47D): −8.55% | Growth Percent ([1]; CNS Cancer, SF-268): 43.09% | Growth Percent ([1]; CNS Cancer, SNB-19): 57.90% | Growth Percent ([1]; CNS Cancer, SNB-75): 37.28% | Growth Percent ([1]; CNS Cancer, U251): 18.85% | Growth Percent ([1]; Colon Cancer, COLO 205): 34.38% | Growth Percent ([1]; Colon Cancer, HCC-2998): 81.46% | Growth Percent ([1]; Colon Cancer, HCT-116): −23.66% | Growth Percent ([1]; Colon Cancer, HT29): −29.01% | Growth Percent ([1]; Colon Cancer, KM12): 34.70% | Growth Percent ([1]; Colon Cancer, SW-620): −4.13% | Growth Percent ([1]; Leukemia, CCRF-CEM): 12.99% | Growth Percent ([1]; Leukemia, HL-60(TB)): 45.99% | Growth Percent ([1]; Leukemia, K-562): 4.81% | Growth Percent ([1]; Leukemia, MOLT-4): 5.52% | Growth Percent ([1]; Leukemia, RPMI-8226): −13.60% | Growth Percent ([1]; Leukemia, SR): 3.61% | Growth Percent ([1]; Melanoma, LOX IMVI): −52.69% | Growth Percent ([1]; Melanoma, M14): 54.77% | Growth Percent ([1]; Melanoma, MALME-3M): 35.26% | Growth Percent ([1]; Melanoma, MDA-MB-435): 42.59% | Growth Percent ([1]; Melanoma, SK-MEL-2): 29.07% | Growth Percent ([1]; Melanoma, SK-MEL-5): 64.76% | Growth Percent ([1]; Melanoma, SK-MEL-28): 41.25% | Growth Percent ([1]; Melanoma, UACC-62): 28.83% | Growth Percent ([1]; Melanoma, UACC-257): 79.56% | Growth Percent ([1]; Non-small Cell Lung Cancer, A549/ATCC): 55.43% | Growth Percent ([1]; Non-small Cell Lung Cancer, EKVX): 71.36% | Growth Percent ([1]; Non-small Cell Lung Cancer, HOP-62): 27.50% | Growth Percent ([1]; Non-small Cell Lung Cancer, HOP-92): 64.31% | Growth Percent ([1]; Non-small Cell Lung Cancer, NCI-H23): 63.65% | Growth Percent ([1]; Non-small Cell Lung Cancer, NCI-H226): 94.46% | Growth Percent ([1]; Non-small Cell Lung Cancer, NCI-H322M): 72.84% | Growth Percent ([1]; Non-small Cell Lung Cancer, NCI-H460): 43.90% | Growth Percent ([1]; Ovarian Cancer, IGROV1): −12.12% | Growth Percent ([1]; Ovarian Cancer, NCI/ADR-RES): 78.93% | Growth Percent ([1]; Ovarian Cancer, OVCAR-3): −3.79% | Growth Percent ([1]; Ovarian Cancer, OVCAR-4): 52.06% | Growth Percent ([1]; Ovarian Cancer, OVCAR-5): 109.51% | Growth Percent ([1]; Ovarian Cancer, OVCAR-8): 17.89% | Growth Percent ([1]; Ovarian Cancer, SK-OV-3): 37.28% | Growth Percent ([1]; Prostate Cancer, DU-145): 12.72% | Growth Percent ([1]; Prostate Cancer, PC-3): 28.08% | Growth Percent ([1]; Renal Cancer, 786-0): −0.52% | Growth Percent ([1]; Renal Cancer, ACHN): 5.12% | Growth Percent ([1]; Renal Cancer, CAKI-1): 37.11% | Growth Percent ([1]; Renal Cancer, RXF 393): −6.67% | Growth Percent ([1]; Renal Cancer, SN12C): 46.55% | Growth Percent ([1]; Renal Cancer, TK-10): 10.18% | Growth Percent ([1]; Renal Cancer, UO-31): 22.19% | Growth Percent [2]: −56.41% | Growth Percent [3]: −47.90% | Growth Percent [4]: −47.70% | Growth Percent [5]: −41.82% | GI50 ([6]; 60 cell): 5.52 µM | CC50 ([6]; 60 cell, read-out: LC50): > 100 µM | GI50 ([6]; 786-0): 3.02 µM | CC50 ([6]; 786-0, read-out: LC50): > 100 µM | GI50 ([6]; A498): 28.8 µM | CC50 ([6]; A498, read-out: LC50): > 100 µM | GI50 ([6]; A549): 26.4 µM | CC50 ([6]; A549, read-out: LC50): > 100 µM | GI50 ([6]; ACHN): 7.81 µM | CC50 ([6]; ACHN, read-out: LC50): > 100 µM | GI50 ([6]; BT-549): 4.58 µM | CC50 ([6]; BT-549, read-out: LC50): > 100 µM | GI50 ([6]; CAKI-1): 13 µM | CC50 ([6]; CAKI-1, read-out: LC50): 70 µM | GI50 ([6]; CCRF-CEM): 2.84 µM | CC50 ([6]; CCRF-CEM, read-out: LC50): > 100 µM | GI50 ([6]; COLO 205): 12.3 µM | CC50 ([6]; COLO 205, read-out: LC50): > 100 µM | GI50 ([6]; DU-145): 4.34 µM | CC50 ([6]; DU-145, read-out: LC50): > 100 µM | GI50 ([6]; EKVX): 28.8 µM | CC50 ([6]; EKVX, read-out: LC50): > 100 µM | GI50 ([6]; HCC 2998): 18.2 µM | CC50 ([6]; HCC 2998, read-out: LC50): > 100 µM | GI50 ([6]; HCT-15): 2.53 µM | CC50 ([6]; HCT-15, read-out: LC50): > 100 µM | GI50 ([6]; HCT-116): 1.91 µM | CC50 ([6]; HCT-116, read-out: LC50): 9.09 µM | GI50 ([6]; HOP-62): 22.4 µM | CC50 ([6]; HOP-62, read-out: LC50): > 100 µM | GI50 ([6]; HOP-92): 18.7 µM | GI50 ([6]; HT-29): 3.9 µM | CC50 ([6]; HT-29, read-out: LC50): 75.2 µM | GI50 ([6]; Hs-578T): 12 µM | CC50 ([6]; Hs-578T, read-out: LC50): > 100 µM | GI50 ([6]; IGROV-1): 8.21 µM | CC50 ([6]; IGROV-1, read-out: LC50): > 100 µM | GI50 ([6]; K562): 2.79 µM | CC50 ([6]; K562, read-out: LC50): > 100 µM | GI50 ([6]; KM12): 8.27 µM | CC50 ([6]; KM12, read-out: LC50): 94.7 µM | GI50 ([6]; LOX IMVI): 3.22 µM | CC50 ([6]; LOX IMVI, read-out: LC50): 48.1 µM | GI50 ([6]; M14): 7.88 µM | CC50 ([6]; M14, read-out: LC50): > 100 µM | GI50 ([6]; MCF7): 3.85 µM | CC50 ([6]; MCF7, read-out: LC50): > 100 µM | GI50 ([6]; MDA-MB-231): 13.4 µM | CC50 ([6]; MDA-MB-231, read-out: LC50): > 100 µM | GI50 ([6]; MDA-MB-435): 3.49 µM | CC50 ([6]; MDA-MB-435, read-out: LC50): > 100 µM | GI50 ([6]; MDA-MB-468): 3.59 µM | CC50 ([6]; MDA-MB-468, read-out: LC50): 54.7 µM | GI50 ([6]; MOLT-4): 2.84 µM | CC50 ([6]; MOLT-4, read-out: LC50): ≥ 100 µM | GI50 ([6]; Malme-3M): 21.2 µM | CC50 ([6]; Malme-3M, read-out: LC50): > 100 µM | GI50 ([6]; NCI-H23): 18.1 µM | CC50 ([6]; NCI-H23, read-out: LC50): > 100 µM | GI50 ([6]; NCI-H226): 7.36 µM | CC50 ([6]; NCI-H226, read-out: LC50): > 100 µM | GI50 ([6]; NCI-H322M): 50.5 µM | CC50 ([6]; NCI-H322M, read-out: LC50): > 100 µM | GI50 ([6]; NCI-H460): 4.65 µM | CC50 ([6]; NCI-H460, read-out: LC50): > 100 µM | GI50 ([6]; NCI-H522): 6.6 µM | CC50 ([6]; NCI-H522, read-out: LC50): 69.3 µM | GI50 ([6]; NCI/ADR-RES): 6.34 µM | CC50 ([6]; NCI/ADR-RES, read-out: LC50): > 100 µM | GI50 ([6]; OVCAR-3): 4.41 µM | CC50 ([6]; OVCAR-3, read-out: LC50): > 100 µM | GI50 ([6]; OVCAR-4): 18.9 µM | CC50 ([6]; OVCAR-4, read-out: LC50): > 100 µM | GI50 ([6]; OVCAR-5): 24.5 µM | CC50 ([6]; OVCAR-5, read-out: LC50): > 100 µM | GI50 ([6]; OVCAR-8): 7.61 µM | CC50 ([6]; OVCAR-8, read-out: LC50): > 100 µM | GI50 ([6]; RXF 393): 3.18 µM | CC50 ([6]; RXF 393, read-out: LC50): 48.9 µM | GI50 ([6]; SF-268): 5.95 µM | CC50 ([6]; SF-268, read-out: LC50): > 100 µM | GI50 ([6]; SK-MEL-2): 17.1 µM | CC50 ([6]; SK-MEL-2, read-out: LC50): > 100 µM | GI50 ([6]; SK-MEL-5): 10.2 µM | CC50 ([6]; SK-MEL-5, read-out: LC50): 62.5 µM | GI50 ([6]; SK-MEL-28): 20.5 µM | CC50 ([6]; SK-MEL-28, read-out: LC50): > 100 µM | GI50 ([6]; SK-OV-3): 34 µM | CC50 ([6]; SK-OV-3, read-out: LC50): > 100 µM | GI50 ([6]; SN12C): 3.81 µM | CC50 ([6]; SN12C, read-out: LC50): > 100 µM | GI50 ([6]; SNB-19): 12.9 µM | CC50 ([6]; SNB-19, read-out: LC50): > 100 µM | GI50 ([6]; SNB-75): 5.4 µM | CC50 ([6]; SNB-75, read-out: LC50): > 100 µM | GI50 ([6]; SW-620): 3.38 µM | CC50 ([6]; SW-620, read-out: LC50): > 100 µM | GI50 ([6]; T47D): 3.5 µM | CC50 ([6]; T47D, read-out: LC50): > 100 µM | GI50 ([6]; TK-10): 7.47 µM | CC50 ([6]; TK-10, read-out: LC50): > 100 µM | GI50 ([6]; U-251): 4.41 µM | CC50 ([6]; U-251, read-out: LC50): 58.6 µM | GI50 ([6]; UACC-62): 9.54 µM | CC50 ([6]; UACC-62, read-out: LC50): 89.7 µM | GI50 ([6]; UACC-257): 23.8 µM | CC50 ([6]; UACC-257, read-out: LC50): > 100 µM | GI50 ([6]; UO-31): 5.26 µM | CC50 ([6]; UO-31, read-out: LC50): 49.9 µM | GI50 ([7]; Homo sapiens, SF-539): 3.04 µM | CC50 ([7]; Homo sapiens, SF-539, read-out: LC50): 79.9 µM | TGI ([7]; SF-539 (CNS Cancer), five dose): 1.33E−5 | GI50 ([8]; Homo sapiens, RPMI-8226): 2.73 µM | CC50 ([8]; Homo sapiens, RPMI-8226, read-out: LC50): > 100 µM | TGI ([8]; RPMI-8226 (Leukemia), five dose): 7.44E−6 | GI50 ([9]; Homo sapiens, SR): 2.58 µM | CC50 ([9]; Homo sapiens, SR, read-out: LC50): > 100 µM | TGI ([9]; SR (Leukemia), five dose): >1.00E−4
